Data from publication PMC5640672, “Molecular mechanism of synergy between the antimicrobial peptides PGLa and magainin 2” (Scientific Reports, 2017).
No end group written: not given here.

How the values were obtained:
[1] = Fluorescence ANTS/DPX vesicle leakage assay in POPC/POPG (3:1); details: ANTS/DPX, POPC/POPG (3:1) 100 nm vesicles, P/L about 1:160 per peptide, mixtures 1:1, 10 mM HEPES pH 7.5, 155 mM NaCl, 30 °C, 600 s, % of Triton-X-100 leakage, fluorescence, mean of n = 3
Procedure: The synergy was also investigated by a fluorescence ANTS/DPX leakage assay[24],[27],[30]. As described in the Methods section, leakage from POPC/POPG (3:1) vesicles was measured for 10 minutes after the addition of vesicles to a peptide solution. Leakage is expressed as percentage of the full leakage, which was obtained after addition of detergent. A synergy factor was defined to describe the enhancement of leakage of the mixture compared to the sum of the extent of leakage for each component. […] In general a synergy factor above 2 indicated synergy. […] In the leakage assay, this pore formation can be studied under more controlled conditions. Here we use two lipid compositions for the vesicles, which are mimicking bacterial membranes.
Leakage of small unilamellar vesicles induced by the peptides was studied using a standard fluorescence assay.
The appropriate lipids for each experiment were dissolved in CHCl3, together with 0.02 mol-% Rhodamine-PE (Rh-PE). […] This stock suspension was subjected to 10 freeze-thaw cycles and then frozen. Appropriate aliquots of the stock lipid suspension were unfrozen each day and extruded (41 times) through polycarbonate membranes with 100 nm pore size, and stored at room temperature overnight. The fluorophore and quencher outside the vesicles were removed by size exclusion chromatography using spin-columns (Pierce centrifuge column, 2 ml, Life Technologies GmbH, Darmstadt, Germany) filled with Sephacryl 100-HR (2 min, 1500 × g). For elution, a 10 mM HEPES buffer (pH 7.5) was used, containing 155 mM NaCl to balance the osmolarity. After extrusion and removal of the external dye and quencher, the lipid concentration usually decreases. Therefore, before each set of measurements a rhodamine spectrum was recorded to determine the actual concentration of lipids, which was referenced to a spectrum taken of vesicles made by sonification without any subsequent treatment.
Fluorescence experiments were performed on a FluoroMax2 spectrofluorimeter (HORIBA Jobin Yvon, Unterhaching, Germany) equipped with a thermostated sample holder and magnetic stirrer, using an excitation wavelength of 355 nm, an emission wavelength of 508 nm, and slit widths of 5 nm. The peptide solutions were placed in elution buffer in a 1 cm standard cuvette at 30 °C. 100 s after the start of the measurement lipid vesicles were added, and the intensity of the fluorescence at 508 nm was recorded. The leakage was measured during 600 s after addition of vesicles, and the measurement was terminated after addition of Triton-X-100 (0.25% v/v), which dissolved the vesicles, and yielded 100% leakage. To determine the background signal of the vesicles themselves, several blanks were recorded per measurement set. From the leakage values of the peptides alone and of the mixture of two peptides a synergy factor SF was calculated:3 SF=L(A+B)/[L(A)+L(B)] […] Measurements were repeated three times and average values and standard deviations calculated for the leakage and the synergy factors. An average SF ≥ 2 was taken to indicate synergy.

[2] = test system: E. coli DSM 1103; assay: Checker-board assay (FICI); assay type: cell-based, Escherichia coli; details: below 0.5 = synergistic activity
Procedure: A suitable method to study synergistic antimicrobial activity is the so-called checker-board assay, described in the Methods section. We performed such experiments on one Gram-negative bacterium, E. coli, and one Gram-positive one, S. aureus. From this method a fractional inhibitory concentration index (FICI) is determined, and when this is below 0.5, the peptides are said to have a synergistic effect against bacteria. This is the biologically relevant effect, but we are here interested in the atomistic details of the interactions behind the effect. Therefore we also use biophysical methods.
The antimicrobial activity of the peptides was investigated with a standard MIC assay[87],[88] on one Gram positive (Staphylococcus aureus, DSM 1104, ATCC 25923) and one Gram negative bacterial strain (Escherichia coli, DSM 1103, ATCC 25922). Bacteria were grown in Müller-Hinton medium (MH) at 37 °C and 220 rpm. Overnight cultures were inoculated from a single colony and grown for approximately 16 h. Day cultures were grown for approximately 3 h until they reached the exponential growth phase. These suspensions were diluted with MH-medium to a concentration of 10^6 colony-forming units (CFU) per ml. The microtiter plates (96 wells of 100 µL) were filled with 50 µL of MH, and serial 2-fold dilutions of each peptide were arranged in triplets along the columns. […] The MIC value was determined visually, as the lowest peptide concentration which inhibited bacterial growth in at least two out of three columns.
To visualize synergy between different peptides, a two-dimensional dilution assay was used[89],[90]. […] From these values, fractional inhibitory concentration indices (FICIs) were calculated with the following formula[89],[91]:1 FICI=[MIC(A)^comb/MIC(A)^alone]+[MIC(B)^comb/MIC(B)^alone] In this formula, MIC(A)^alone is the MIC value determined for peptide A alone, and MIC(A)^comb is the concentration of peptide A at the MIC determined for the combination. […]

[3] = Table S3 series (charge mutants)
[4] = Table S7 series (PGLa-to-MSI mutants)

Row | Substance | Leakage, mean value [1, 3] [%] | Leakage, mean value [1, 4] [%] | FICI in combination with MAG2-WT [2] | Leakage, mean value ([1]; Table S11 series (MSI-to-PGLa mutants)) [%]
1 | GIGKFLHSAKKFGKAFVGKIMNS-OH [MAG2-E19K, MAG2 charge mutant E19K] | 4.2 |  |  | 
2 | GMASKAGKIAGKIAKVALKAL-NH2 (also: 15N-labeled Ala10) [PtM-A8K, PGLa single mutant A8K] |  | 2.5 |  | 
3 | GMASKAGAIAGKIAKIAGKIA-NH2 [PtM-c1, PGLa to MSI-103 mutant, segment C replaced] |  | 1.4 | below 0.5 | 
4 | GIGKFLHSAKKFGKAFVGKIMNS-NH 2 (GIGKFLHSAKKFGKAFVGKIMNS-NH2) [MAG2-E19K-amide, amidated MAG2 E19K mutant] | 2.9 |  |  | 
5 | GMASKIGAIAGKIAKVALKAL-NH2 (also: 15N-labeled Ala10) [PtM-A6I, PGLa single mutant A6I] |  | 2.0 |  | 
6 | KIAGKIGKIAGKIAKIAGKIA-NH2 [MtP-A7G, MSI-103 to PGLa single mutant A7G] |  |  | below 0.5 | 1.4
7 | KIAGKAGAIAGKIAKVALKAL-NH2 [PtM-a2, PGLa to MSI-103 mutant, three amino acids converted] |  | 2.4 | below 0.5 | 
